Assay results as given in PubChem BioAssay AID1918941 (Molecular Pharmacology Branch, DTP, NCI, 2023).
pIC50: −log10 of the molar value.

Test system: SW 1271 complex spheroids, viability
Experiment: Anticancer human tumor SW 1271 cell line growth inhibition [LSD1];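 also: spheroids exposed to agents for 7 days before luminescence read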;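 as to viability, T/C: 100% = DMSO vehicle control viability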
Details: for pIC50: curve of first compound; for viability, T/C: stronger effect = lower value
From the text: Multicellular complex tumor spheroid response to LSD1 Inhibitor Iadademstat in combination with a variety of drugs and investigational agents in selected tumor cell lines
The current study was undertaken to assess response to LSD1 inhibitors in combination with standard-of-care drugs and investigational agents in solid tumor complex spheroid models as well as in the K-562 leukemia. Complex spheroids include a stromal component modeled by human endothelial cells (HUVEC) and fibroblasts modeled by human mesenchymal stem cells (MSCs). The concentration ranges selected for each drug and investigational agent were based upon clinically achievable concentrations if the clinical Cmax of the agent was known.
Compounds. The drugs and investigational agents used in this study are listed on Table 1. All of the agents used, including staurosporine (NSC755774) and gemcitabine (NSC613327), were obtained from the Developmental Therapeutics Program, NCI. FDA-approved anticancer drugs are available from the NCI at http://dtp.nci.nih.gov/branches/dscb/oncology_drugset_explanation.html. Drugs and investigational agents were >95% pure by proton nuclear magnetic resonance (NMR) and liquid chromatography/mass spectrometry (LC/MS). Stock solutions were prepared at 400x in DMSO, stored at -70 degrees C, and diluted in fresh medium prior to their use. The final concentration of DMSO in cell culture wells never exceeded 0.25% (v/v). The FDA-approved anticancer drug set is available from the Developmental Therapeutics Program at https://dtp.cancer.gov/organization/dscb/obtaining/available_plates.htm. All drugs and investigational agents were tested over a range starting from a high concentration at or near the clinical Cmax and decreasing in half-log increments. If the clinical Cmax for an agent had not been determined, the highest concentration tested was 10 microM.
Cell Lines. The patient-derived cancer cell (PDC) lines: 292921-168-R-J2-PDC, K24384-001-R-PDC, and 521955-158-R2-J5-PDC pancreatic carcinomas, 556581-035-R-J1 ovarian carcinoma, 324938-238-R-J1-PDC, 855422-203-R-J1-PDC and 883617-216-R-J1-PDC urothelial bladder carcinomas, 743489-274-T-PDC renal cell carcinoma, 138582-R-J1 Merkel cell tumor, K60290-347-R-J1 and K57222-313-R-J1-PDC glioblastomas, 653999-131-R-J2-PDC, LG0703-F948-PDC, and 349418-098-R-PDC non-small cell lung carcinomas, 885512-296-R-J2-PDC, 171881-019-R-J1-PDC breast carcinomas and 186277-243-T-J2-PDC and 233499-124-R-J2-PDC colon carcinomas were obtained from the NCI Patient-Derived Models Repository (PDMR, https://pdmr.cancer.gov). The established cell lines NCI/ADR-RES (RRID:CVCL_14520 and OVCAR-5 (RRID:CVCL_1628) ovarian carcinomas, 786-O (RRID:CVCL_1051) and A498 (RRID:CVCL_A498) renal cell carcinoma, NCI-H211 (ATCC, cat. CRL-5824; RRID:CVCL_1529), NCI-H196 (ATCC, cat. CRL-5823, RRID:CVCL_1509), SW 1271 (ATCC, cat. CRL-2177, RRID:CVCL_1716) and NCI-H1876 (ATCC, cat. CRL-5902, RRID:CVCL_1503) small cell lung carcinomas, MDA-MB-231 (RRID:CVCL_0062) and MDA-MB-468 (RRID:CVCL_0419)breast carcinomas (10-12). Pooled donor human umbilical vein endothelial cells (HUVEC, Lonza, cat. CC-2519) and human mesenchymal stem cells (hMSC, Lonza, cat. PT-2501) were purchased from Lonza (Walkersville, MD).
Cell Culture. All cells were maintained in an incubator at 37 degrees C and 5% CO2 with 95% humidity. The PDC lines were cultured according to standard operating procedures established by the NCI PDMR (https://pdmr.cancer.gov). Briefly all PDCs were thawed and cultured in Matrigel-coated flasks prepared with a working solution of 1X Ham's F-12 nutrient mix, without supplementation (Invitrogen, Waltham, MA, cat. 11765054), 100 U/mL penicillin-streptomycin (Invitrogen, cat. 15140122), and 2.5% Matrigel (Corning Inc., Corning, NY, cat. 354248) for the first three passages. […]

CC[C@@]1(O)C(=O)OCc2c1cc1n(c2=O)Cc2cc3c(CN(C)C)c(O)ccc3nc2-1 + NC1CC1c1ccc(-c2cccc(O)c2)cc1
pIC50 (second compound 0.1 µM): 7.28 | pIC50 (second compound 0.316 µM): 7.35 | pIC50 (second compound 1 µM): 7.56 | pIC50 (second compound 3.16 µM): < 7.00 | pIC50 (second compound 10 µM): 7.24 | viability, T/C (second compound 0.1 µM, first compound 0.000316 µM): 93.2% | viability, T/C (second compound 0.1 µM, first compound 0.001 µM): 81.3% | viability, T/C (second compound 0.1 µM, first compound 0.00316 µM): 72.5% | viability, T/C (second compound 0.1 µM, first compound 0.01 µM): 63.6% | viability, T/C (second compound 0.1 µM, first compound 0.0316 µM): 55.9% | viability, T/C (second compound 0.1 µM, first compound 0.1 µM): 43.5% | viability, T/C (second compound 0.316 µM, first compound 0.000316 µM): 83% | viability, T/C (second compound 0.316 µM, first compound 0.001 µM): 79.4% | viability, T/C (second compound 0.316 µM, first compound 0.00316 µM): 77.4% | viability, T/C (second compound 0.316 µM, first compound 0.01 µM): 63.6% | viability, T/C (second compound 0.316 µM, first compound 0.0316 µM): 54.7% | viability, T/C (second compound 0.316 µM, first compound 0.1 µM): 41.6% | viability, T/C (second compound 1 µM, first compound 0.000316 µM): 76.6% | viability, T/C (second compound 1 µM, first compound 0.001 µM): 79.5% | viability, T/C (second compound 1 µM, first compound 0.00316 µM): 69.1% | viability, T/C (second compound 1 µM, first compound 0.01 µM): 53.4% | viability, T/C (second compound 1 µM, first compound 0.0316 µM): 52.4% | viability, T/C (second compound 1 µM, first compound 0.1 µM): 46.5% | viability, T/C (second compound 3.16 µM, first compound 0.000316 µM): 84.9% | viability, T/C (second compound 3.16 µM, first compound 0.001 µM): 75.5% | viability, T/C (second compound 3.16 µM, first compound 0.00316 µM): 66% | viability, T/C (second compound 3.16 µM, first compound 0.01 µM): 59.2% | viability, T/C (second compound 3.16 µM, first compound 0.0316 µM): 54.3% | viability, T/C (second compound 3.16 µM, first compound 0.1 µM): 50.5% | viability, T/C (second compound 10 µM, first compound 0.000316 µM): 74.7% | viability, T/C (second compound 10 µM, first compound 0.001 µM): 78.9% | viability, T/C (second compound 10 µM, first compound 0.00316 µM): 62.1% | viability, T/C (second compound 10 µM, first compound 0.01 µM): 58.2% | viability, T/C (second compound 10 µM, first compound 0.0316 µM): 54.1% | viability, T/C (second compound 10 µM, first compound 0.1 µM): 47.3%
